Values of other authors as cited in EP4302832A1, “PALBOCICLIB FORMULATION CONTAINING GLUCONO DELTA LACTONE” (Lotus Pharmaceutical Co., Ltd., priority 2022, dated 2024).
Where two headings read alike, the source gives them in different places.

Key:
[1] = low pH (2.1-4.5)

pKa (the pyridine nitrogen): ~4.1 | pKa (the secondary piperazine nitrogen): approximately 7.3 | solubility [1]: water soluble
SMILES: CC(=O)c1c(C)c2cnc(Nc3ccc(N4CCNCC4)cn3)nc2n(C2CCCC2)c1=O [Palbociclib, 6-acetyl-8-cyclopentyl-5-methyl-2-(5-piperazin-1-yl-pyridin-2-ylamino)-8H-pyrido[2,3-d]-pyrimidin-7-one]
